Assay results from patent publication US4954156A, “N,N-dihalo-2-imidazolidinones and N-halo-2-oxazolidinones as urease and nitrification inhibitors” (Tennessee Valley Authority, priority 1989, dated 1990).
“And” between values parts separate entries of the source, which are not always exact repeats. Equal values may be shown once.

How the values were obtained:
[1] = target: purified Jack Bean urease (Canavalia ensiformis, UniProt P07374); test: Aqueous system (pH stat) urease inhibition test; type: biochemical; details: 25° C
Protocol: (§1) Embodiment 1: Urease activity of inhibitor test compounds may be evaluated either in aqueous or in soil systems. When aqueous systems are used, urea plus a test compound with possible urease inhibition activity and relatively pure urease enzyme are incubated together to determine the effects of the test compound on urease-catalyzed hydrolysis of urea. When soil systems are used, urea and the test compound are added to moist soil, and the urease enzyme is supplied from the soil. The main disadvantage of using soil systems is that the true activity of test compounds may be masked because of reactions between the test compound and soil. Thus, basic studies for understanding chemical structure-activity relationships are usually done in aqueous systems.
Aqueous System (pH Stat) Test Procedure: The aqueous system urease inhibition tests were conducted at 25° C using purified Jack Bean urease enzyme, 50,000-80,000 units per gram, a unit of urease will liberate 1 umole of NH3 from urea per minute at pH 7.0 at 25° C.
An appropriate amount of inhibitor [such as 37.0 uL (microliters) of a 1.169×10^(-3) M (moles/liter) inhibitor solution] and 100 uL of a solution of 13.9130 mg Jack Bean urease enzyme in 10.00 mL of water were diluted to 25.00 mL. This combined solution was allowed to sit undisturbed at 23° C. for twenty (20) minutes. Then 20.0 uL of a preservative solution was added to prevent degradation of the urease enzyme during the course of the experiment. The preservative solution contained 5.655×10^-4 moles/liter ethylenediaminetetraacetic acid (disodium salt) and 1.166×10^-3) moles/liter dithiothreitol.
Immediately after the addition of the preservative solution to the inhibitor/urease solution, 800 uL of a 0.1246 M urea solution was added and a computer assisted titrimeter was started. This titrimeter maintained a constant pH of 6.97 during the course of the experiment by neutralizing the ammonia (resulting from urease hydrolysis of urea) with 0.01142 M hydrochloric acid (HCl). The volume (measured to 0.001 mL) of HCl added was automatically recorded every 15 seconds for up to 20.0 minutes or until a total volume of 2.500 mL of HCl was added.
Experiments also were conducted without inhibitor (blank) and with the inhibitor PPDA for comparison. The experiments were replicated, and the percent inhibition for each of the inhibitors at the various concentrations was calculated as follows:
% inhibition=(kinhibitor /kblank)×100 (4)
where kinhibitor and kblank are the average rates of HCl addition for the inhibitor and blank experiments, respectively. The rates of HCl addition were calculated by linear regression of the titration curves.

[2] = system: soil urease (urease-active Hastings silt loam soil); test: Banded soil system urease inhibition test (Hastings silt loam); details: 410 mg urea + 41 mg inhibitor
Protocol: as §1
Soil System Test Procedure: The soil system test procedure used was a modification of the previous procedures of other researchers L. A. Douglas and J. M. Bremner, Soil Biol. Biochem. 3, 309-315 (1971) and J. M. Bremner and R. L. Mulvaney, "Urease Activity in Soils," Soil Enzymes 5, R. G. Burns, editor, Academic Press, 149-195 (1978)]. In this modified procedure powdered mixtures of urea and test compounds were applied in narrow bands in the soil rather than being mixed throughout the soil. The banded configuration also results in concentration gradients of urea, urea hydrolysis products, test compounds, and test compound decomposition products similar to those in the immediate vicinity of urea granules containing the test compounds. Another advantage of the banded configuration compared with mixing throughout the soil is that slightly soluble test compounds can be easily band applied, whereas it is difficult to achieve a known degree of mixing of a small quantity of slightly soluble test compound with soil. The banded configuration also enables testing for urease inhibition under realistic soil conditions prior to the development of techniques for cogranulating a wide range of test compounds with urea.
A detailed description of the banded soil testing procedure follows. Urease-active soil (Hastings silt loam) was moistened to a moisture content of 20 percent dry weight basis) and preincubated at room temperature for two days. Plexiglas containers (6×6×6 cm) were half filled with soil and packed to a bulk density of 1.0 g/cm . Urea (410 mg) or urea (410 mg) plus inhibitor (41 mg, thoroughly mixed with the urea) was distributed in a narrow band about 0.5 cm wide and 6 cm long on the soil surface. The containers then were filled with soil, again packing to a bulk density of 1.0 g/cm^3. The containers were incubated at 25° C. for the desired reaction period, after which the containers were frozen to about -5° C. to stop urea hydrolysis. Immediately prior to extracting the remaining urea from the soil, said soil was allowed to thaw. Soil from each container was thoroughly mixed, and a 10-g sample was extracted with 100 ml of 2 M KCl containing phenylmercuric acetate to prevent urea hydrolysis during handling [L. A. Douglas and J. M. Bremner, Soil. Sci. Soc. Am. Proc. 34, 859-862 (1970)]. Urea in the extracts was determined colorimetrically as a measure of unhydrolyzed urea and the results expressed as percent unhydrolyzed urea-N.
^a The plexiglas containers measured 6 × 6 × 6 cm.
Hastings silt loam soil was utilized and packed to a bulk density of 1
gm/cm^3 dry basis. The soil was wet to near field capacity (20%
moisture) and 260 g of wetted soil (216 g dry soil) was added per
container. The containers were packed half full, urea and inhibitor were
added, and the remaining soil was added. The amount of urea added = 410 m

[3] = system: nitrification of ammonium nitrogen in soil; test: Soil nitrification inhibition test (Mountainview silt loam, banded); details: for % inhibition (nitrification) / Net mg NO2N / Net mg NO3N: 25° C, 410 mg urea + 41 mg inhibitor
Protocol: Embodiment 2: The N-Halamine compounds were tested for nitrification inhibition using the soil testing procedure described below.
Mountainview silt loam soil was screened through a 2 mm sieve. Plexiglas containers (8×8×6 cm) were packed half full with the soil and packed to a bulk density of 1.0 g/cm^3 and wetted to field capacity (approximately 20 weight percent moisture). The urea 410 mg per container) and inhibitor (41 mg per container) were added in a narrow band (0.5 cm wide X 6 cm long), and additional soil was added to fill the containers. The total amount of dry soil added was 384 g. The containers were incubated at 25° C. During incubation the containers were checked periodically for moisture loss and additional water added as needed to maintain moisture levels.
The individual containers were removed from the incubator at 1, 2, 3, 4, and 5 week intervals. After removal from the incubator the contents of the container were transferred to a plastic bag and thoroughly mixed. A 10-g sample of soil (dry basis) was taken from the bag and extracted with 100 ml of 2 N KCL. The extract was filtered through Whatman #41 filter paper and refrigerated until analyzed. Samples were analyzed for NO3-N- NO2-N- and urea-N using a colorimetric procedure. Some samples also were analyzed for NH4-N.
The percent nitrification inhibition was calculated according to the method of Bundy and Bremner [G. L. Bundy and J. M. Bremner, Soil Sci. Soc. Am. Proc. 37, 396-398 (1973)]
% nitrification inhibition=[(C-S)/C]×100
where C=net amount of NO3-N produced in the control (no inhibitor added), and S=net amount of NO3-N produced in the inhibitor treated sample.
^a Concentrations are in net mg/container. All containers had 384 g
soil (dry), 410 mg urea (188.6 mg N) and 41 mg inhibitor. Samples were
extracted 10 g → 100 mls 2N KCl. The formulas used for calculation
where C = net NO3N produced in control (no inhibitor), S = net
NO3N produced in inhibitor treated sample, net NO3N =
(NO3N) - (soil NO3N), and net NO2N = (NO2N) - (soil
NO2N). Values are averages of two replicate samples.

Chain of purified Jack Bean urease (P07374 whole entry, looked up): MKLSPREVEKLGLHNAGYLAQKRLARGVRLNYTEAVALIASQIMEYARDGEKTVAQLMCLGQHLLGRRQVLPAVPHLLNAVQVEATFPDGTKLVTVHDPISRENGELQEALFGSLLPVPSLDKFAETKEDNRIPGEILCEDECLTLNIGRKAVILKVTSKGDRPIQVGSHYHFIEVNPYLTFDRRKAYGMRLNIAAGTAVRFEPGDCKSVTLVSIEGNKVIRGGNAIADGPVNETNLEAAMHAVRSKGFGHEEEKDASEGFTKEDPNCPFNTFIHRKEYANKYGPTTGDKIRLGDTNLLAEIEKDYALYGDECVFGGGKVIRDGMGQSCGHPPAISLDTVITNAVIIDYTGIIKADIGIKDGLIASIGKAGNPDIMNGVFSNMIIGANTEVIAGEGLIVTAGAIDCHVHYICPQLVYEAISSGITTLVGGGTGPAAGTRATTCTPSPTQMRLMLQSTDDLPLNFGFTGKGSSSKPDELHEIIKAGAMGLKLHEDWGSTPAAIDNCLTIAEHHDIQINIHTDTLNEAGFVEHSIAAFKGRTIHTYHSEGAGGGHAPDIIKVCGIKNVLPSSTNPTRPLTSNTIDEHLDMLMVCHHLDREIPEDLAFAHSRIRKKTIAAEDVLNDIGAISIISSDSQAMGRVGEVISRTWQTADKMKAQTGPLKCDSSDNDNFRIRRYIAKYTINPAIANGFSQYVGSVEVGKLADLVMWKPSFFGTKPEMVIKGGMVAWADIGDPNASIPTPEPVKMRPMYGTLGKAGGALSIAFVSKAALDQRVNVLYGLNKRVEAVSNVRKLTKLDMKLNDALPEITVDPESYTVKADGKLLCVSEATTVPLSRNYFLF

CC1(C)N(Cl)C(=O)N(Br)C1(C)C [ABC, 1-bromo-3-chloro-4,4,5,5-tetramethyl-2-imidazolidinone]
% urease inhibition ([1]; inhibitor 0.432 x 10^-8 moles/experiment): 93%
% urease inhibition ([1]; inhibitor 1.430 x 10^-8 moles/experiment): 100%
% unhydrolyzed urea-N ([2]; 3 days incubation at 25° C): 84.71% and 84.7%
PPM urea-N ([2]; 3 days incubation at 25° C): 75.0 PPM
% unhydrolyzed urea-N ([2]; 6 days incubation at 25° C): 53.65% and 53.7%
PPM urea-N ([2]; 6 days incubation at 25° C): 47.5 PPM
% inhibition (nitrification) ([3]; 1 week): 100.0%
Net mg NO2N ([3]; 1 week): -0.05 mg/container
Net mg NO3N ([3]; 1 week): 0.0 mg/container
% inhibition (nitrification) ([3]; 2 weeks): 100.0%
Net mg NO2N ([3]; 2 weeks): 0.04 mg/container
Net mg NO3N ([3]; 2 weeks): 0.0 mg/container
% inhibition (nitrification) ([3]; 3 weeks): 100.0%
Net mg NO2N ([3]; 3 weeks): 0.08 mg/container
Net mg NO3N ([3]; 3 weeks): 0.0 mg/container
% inhibition (nitrification) ([3]; 4 weeks): 100.0%
Net mg NO2N ([3]; 4 weeks): 1.68 mg/container
Net mg NO3N ([3]; 4 weeks): 0.0 mg/container
% inhibition (nitrification) ([3]; 5 weeks): 99.6%
Net mg NO2N ([3]; 5 weeks): 1.67 mg/container
Net mg NO3N ([3]; 5 weeks): 0.8 mg/container
Nitrite accumulation in the soil ([3]; during the 5 weeks incubation, greater than with dicyandiamide): well within plant tolerance levels
percent nitrification inhibition ([3]; separate experiment (Examples VII, IX): sampled only at end of 5-week incubation, no dicyandiamide comparison): 85.6%
